Data taken from patent publication US20090274676A1, “COMBINATION OF DEHYDROEPIANDROSTERONE OR DEHYDROEPIANDROSTERONE-SULFATE WITH A PDE-4 INHIBITOR FOR TREATMENT OF ASTHMA OR CHRONIC OBSTRUCTIVE PULMONARY DISEASE” (priority 2003, published 2009).
Read-outs that look alike come from different tables or passages of the source.

What was measured:
adenosine = assay: In vivo effect on adenosine levels in rat tissues (HPLC of tissue adenosine)
Experimental: Folinic acid (50 mg/kg) was administered intraperitoneally once daily for fourteen days. […] Hearts were removed from animals and flash frozen in liquid nitrogen with 10 s of death. Liver and lungs were removed en bloc and flash frozen with 30 s of death. Brain tissue was subsequently dissected.

asthma = details: 657 patients with asthma, cited from earlier work
[1] = Physicochemical testing of DHEA-S dihydrate before and after micronization; details: for Water (% w/w): Karl Fischer
Experimental: Surface area is determined using five point BET analyses are performed with nitrogen as the adsorbing gas (P/Po=0.05 to 0.30) using a Micromeritics TriStar surface area analyzer. Particle size distributions are measured by laser diffraction using a Micromeritics Saturn Digisizer where the particles are suspended in mineral oil with sodium dioctyl sodium sulfosuccinate as a dispersing agent. Drug substance water content is measured by Karl Fischer titration (Schott Titroline KF). Pure water is used as the standard and all relative standard deviations for triplicates are less than 1%. Powder is added directly to the titration media.

[2] = Aerosolization of neat DHEA-S dihydrate, Acu-Breathe single-dose inhaler, fine particle fraction; type: physicochemical; details: neat powder, Acu-Breathe, 30 to 75 L/min, all flow rates
From the text: The single-dose Acu-Breathe device is used for evaluating DHEA-S.dihydrate. […] These blisters are actuated into the Andersen 8-stage cascade impactor at flow rates ranging from 30 to 75 L/min with a glass twin-impinger throat. Stages 1-5 of the Andersen impactor are rinsed together to obtain an estimate of the fine particle fraction. Pooling the drug collected from multiple stages into one assay make the method much more sensitive. […] Using a carrier with a larger particle size typically improves the aerosol properties of micronized drug substances.

[3] = Solid-state stability with and without lactose at 50° C. (HPLC, DHEA formation); type: physicochemical
From the text: These conditions were used to stress the formulation in order to predict its long-term stability results. […] The primary degradant is DHEA. […] The materials on accelerated storage become more cohesive with time as evidenced by clumping during sample weighing for chemical analysis. […] This is a considerable disadvantage since lactose is the most commonly used inhalation excipient for dry powder formulations. Continuing with the virtually anhydrous form would mean limiting formulations to neat powder or undertaking more comprehensive safety studies to use a novel excipient.

[4] = HPLC analysis of drug degradation during jet milling; type: physicochemical; details: HPLC peak area vs unmilled standard
Experimental: Two vials (A; single-pass; 150 mg) and (B double-pass; 600 mg) of the micronized drug were available for determining drug degradation during jet milling micronization. […] The chromatographic peak area for the HPLC assay of the unmilled drug standard solution (10 mg/ml) gave a value of 23,427. […] The chromatographic peak areas for vials A and B were 11,979 and 11,677, respectively.

Solubility of DHEA-S = type: physicochemical; details: for Solubility: range of triplicates
From the text: Inhalation of pure water can produce a cough stimulus. […] The temperature effect is weaker at high NaCl concentrations.

[5] = Short-term solution stability of DHEA-S nebulizer formulation; type: physicochemical; details: for Appearance of solution on storage: 10 mg/mL in 0.12% NaCl
Experimental: Aliquots of this solution are filled into clear glass vials and stored at RT (24-26° C.) and at 40° C. The samples are checked daily for DHEA-S content, DHEA content, and appearance. For each time point, duplicate samples are withdrawn and diluted from each vial. […] The study is stopped on day three. […] The solution should easily be stable for the day of reconstitution in a clinical trial. The following section describes the aerosol properties of this formulation.

HT-29 SF cells [6] = assay: Reversal of DHEA-mediated growth inhibition; type: cell-based, human; details: 25 μM DHEA, supplement in medium, 48 hours
HT-29 SF cells [7] = assay: Reversal of DHEA effect on cell cycle (flow cytometry); type: cell-based, human; details: 25 μM DHEA, 48 hours
HT-29 SF cells [8] = assay: DHEA effect on cell growth (Coulter counter); type: cell-based, human; details: 12.5-200 μM, 24-72 hours
HT-29 SF cells [9] = assay: DHEA effect on cell cycle (flow cytometry); type: cell-based, human
Experimental: Cells were plated at 10^5/60-mm dish in duplicate. […] Cultures were trypsinized following 0, 24, 48, or 74 hours and fixed and stained using a modification of a procedure of Bauer et al., Cancer Res. 46, 3173-3178 (1986). Briefly, cells were collected by centrifugation and resuspended in cold phosphate-buffered saline. Cells were fixed in 70% ethanol, washed, and resuspended in phosphate-buffered saline.
After 24, 48, and 72 hours, cells were harvested, fixed in ethanol, and stained with propidium iodide, and the DNA content/cell was determined by flow cytometric analysis. The percentage of cells in G1, S, and G2M phases was calculated using the Cellfit cell cycle analysis program. S phase is marked by a quadrangle for clarity. Representative histograms from duplicate determinations are shown. The experiment was repeated three times.

[10] = Folinic Acid 50 mg/kg intraperitoneally once daily 14 days, mean±SEM

## Nc1nc(=O)c2c([nH]1)NCC(CNc1ccc(C(=O)N[C@@H](CCC(=O)O)C(=O)O)cc1)N2C=O (mixture of isomers) [Folinic Acid, Folinic acid]
adenosine; [10]
  Intracellular adenosine, Brain: 0.72 ± 0.09 nmols/mg protein
  Intracellular adenosine, Heart: 12.4 ± 2.1 nmols/mg protein
  Intracellular adenosine, Liver: 16.4 ± 2.4 nmols/mg protein
adenosine; all organs studied
  Effect on adenosine levels when administered alone: increase in adenosine levels
adenosine; coadministered with DHEA or methyltestosterone
  Effect of coadministration on steroid-mediated adenosine depletion: completely abrogated

## O=C(Nc1c(Cl)cncc1Cl)c1ccc(OC(F)F)c(OCC2CC2)c1 [Roflumilast]
asthma; higher dose
  Reduction of number of exacerbations compared to placebo: 48%
asthma; lower dose
  Reduction of number of exacerbations compared to placebo: 8%

## CC12CCC3C(CC=C4CC(OS(=O)(=O)[O-])CCC43C)C1CCC2=O.[Na+] (stereo not drawn) [DHEA-S Dihydrate]
[1]; Bulk
  Particle size (D50%): 31 microns
  Water (% w/w): 8.5 % w/w
[1]; Micronized
  Particle size (D50%): 3.7 microns
  Water (% w/w): 8.4 % w/w
[1]; Micronized, five point BET
  Surface area (m^2/g): 4.9 m^2/g
[2]
  Fine particle fraction compared with virtually anhydrous material: higher fine particle fraction
[3]; 1 week at 50° C.
  Colour after storage: no change in color
[3]; 50° C., 1 week
  DHEA % formed: 0.216%
[3]; 50° C., 3 weeks
  DHEA % formed: 0.317%
[3]; 50° C., 4 weeks
  DHEA % formed: 0.374%
[3]; Control, initial (Time=0)
  DHEA % formed: 0.213%
[3]; Control, sealed, 25° C., 4 weeks
  DHEA % formed: 0.218%
[3]; before storage
  Water content, starting value: 8.8%
[3]; one week at 50° C.
  Water content after accelerated storage: 8.66%

## C[C@]12CC[C@H](OS(=O)(=O)[O-])CC1=CC[C@@H]1[C@@H]2CC[C@]2(C)C(=O)CC[C@@H]12.[Na+] [DHEA-S, sodium dehydroepiandrostenone sulfate]
[4]
  Degradation of the drug during jet milling micronization: no detectable degradation
Solubility of DHEA-S; 0.9% NaCl, refrigerated (7-8° C.)
  Solubility: 1100 to 1300 µg/mL
Solubility of DHEA-S; 15° C., interpolated
  Ksp: ~1316 mM^2
Solubility of DHEA-S; hexane
  Solubility in hexane: insoluble
Solubility of DHEA-S; refrigerated (7-8° C.)
  Equilibrium constant Ksp: 665 mM^2
Solubility of DHEA-S; room temperature (24-25° C.)
  Equilibrium constant Ksp: 2236 mM^2
Solubility of DHEA-S; ~25° C., 0% NaCl
  Solubility: 16500 to 17400 µg/mL
[5]; 7.5 mg/mL in 0.12% NaCl, RT
  Stability of nebulizer formulation: stable for at least one day
[5]; 40° C.
  Appearance of solution on storage: became cloudy after two days of storage
[5]; RT (24-26° C.)
  Appearance of solution on storage: slight precipitate is observed on the third day

## C[C@]12CCC(=O)C=C1CC[C@@H]1[C@@H]2CC[C@@]2(C)[C@H]1CC[C@]2(C)O [Methyltestosterone, methyltestosterone]
adenosine; Methyltestosterone 40 mg/kg, mean±SEM
  Intracellular adenosine, Liver: 16.5 ± 0.9 nmols/mg protein
adenosine; Methyltestosterone 120 mg/kg, mean±SEM
  Intracellular adenosine, Liver: 5.1 ± 0.5 nmols/mg protein

## CC(C)CCC[C@@H](C)[C@H]1CC[C@H]2[C@@H]3CC=C4C[C@@H](O)CC[C@]4(C)[C@H]3CC[C@]12C [CH, cholesterol]
HT-29 SF cells [6]
  Reversal of DHEA-induced growth inhibition: no such effect
HT-29 SF cells [7]
  Prevention of DHEA-induced S phase depletion: very little effect

## CC(C)=CCC/C(C)=C/CC/C(C)=C/CC/C=C(\C)CC/C=C(\C)CCC=C(C)C [SQ, squalene]
HT-29 SF cells [6]
  Reversal of DHEA-induced growth inhibition: no such effect

## C[C@]12CC[C@H](O)CC1=CC[C@@H]1[C@@H]2CC[C@]2(C)C(=O)CC[C@@H]12 [DHEA, 3β-hydroxyandrost-5-en-17-one]
Solubility of DHEA-S; water
  Solubility in water: insoluble in water
HT-29 SF cells [8]
  Effect on growth of HT-29 cells: time- and dose-dependent inhibition of growth
HT-29 SF cells [9]; 200 μM, after 24 hours
  Percentage of cells in G1 / S phase: more rapid increase in the percentage of cells in G1 and a decreased proportion of cells in S phase
HT-29 SF cells [9]; 25 or 50 μM, after 48 hours
  G2M phase cells: transient increase
HT-29 SF cells [9]; 25 or 50 μM, after 72 hours
  Percentage of cells in G1 phase: increased
HT-29 SF cells [9]; 25 or 50 μM, after the initial 24 hours
  Cell cycle distribution: unchanged
HT-29 SF cells [9]; time- and dose-dependent
  Overall effect on cell cycle: G1 block

## C[C@@](O)(CCO)CC(=O)O [MVA, mevalonic acid]
HT-29 SF cells [6]
  Reversal of DHEA-induced growth inhibition: partially overcome
HT-29 SF cells [7]
  Prevention of DHEA-induced S phase depletion: partially prevented
